Measurements from the supplement of paper PMC10307832.

Assays:
Experiment in all cases: relative viability (nuclei count vs DMSO), 5 days (fraction); higher = more cells survive
Vorinostat + Navitoclax = compound: O=C(CCCCCCC(=O)Nc1ccccc1)NO [Vorinostat] + CC1(C)CCC(c2ccc(Cl)cc2)=C(CN2CCN(c3ccc(C(=O)NS(=O)(=O)c4ccc(N[C@H](CCN5CCOCC5)CSc5ccccc5)c(S(=O)(=O)C(F)(F)F)c4)cc3)CC2)C1 [Navitoclax] (partner 0.5 µM)
Method in brief: (§1)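 Dosing by pin tool came one day after lung cancer cell lines were seeded in 1536-well plates, using either one drug or a fixed anchor-drug dose plus five library-drug doses (not always all listed) in √10 steps. After 5 days, nuclei were counted on 4× images. Relative viability is treated-well nuclei count divided by vehicle-well nuclei count, and values are medians of duplicate plates.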

Vorinostat + Pictilisib = compound: O=C(CCCCCCC(=O)Nc1ccccc1)NO [Vorinostat] + CS(=O)(=O)N1CCN(Cc2cc3nc(-c4cccc5[nH]ncc45)nc(N4CCOCC4)c3s2)CC1 [Pictilisib] (partner 1 µM)
Method in brief: as §1

Vorinostat + Bortezomib = compound: O=C(CCCCCCC(=O)Nc1ccccc1)NO [Vorinostat] + CC(C)C[C@H](NC(=O)[C@H](Cc1ccccc1)NC(=O)c1cnccn1)B(O)O [Bortezomib] (partner 0.002 µM)
Method in brief: as §1

Vorinostat + AZD7762 = compound: O=C(CCCCCCC(=O)Nc1ccccc1)NO [Vorinostat] + NC(=O)Nc1cc(-c2cccc(F)c2)sc1C(=O)N[C@H]1CCCNC1 [AZD7762] (partner 0.2 µM)
Method in brief: as §1

Vorinostat + Decitabine = compound: O=C(CCCCCCC(=O)Nc1ccccc1)NO [Vorinostat] + Nc1ncn([C@H]2C[C@H](O)[C@@H](CO)O2)c(=O)n1 [Decitabine] (partner 2 µM)
Method in brief: as §1

Cell Line	relative viability (Vorinostat + Navitoclax; first compound 0.253 µM)	relative viability (Vorinostat + Navitoclax; first compound 0.8 µM)	relative viability (Vorinostat + Navitoclax; first compound 2.53 µM)	relative viability (Vorinostat + Navitoclax; first compound 8 µM)	relative viability (Vorinostat + Pictilisib; first compound 0.253 µM)	relative viability (Vorinostat + Pictilisib; first compound 0.8 µM)	relative viability (Vorinostat + Pictilisib; first compound 2.53 µM)	relative viability (Vorinostat + Pictilisib; first compound 8 µM)	relative viability (Vorinostat + Bortezomib; first compound 0.253 µM)	relative viability (Vorinostat + Bortezomib; first compound 0.8 µM)	relative viability (Vorinostat + Bortezomib; first compound 2.53 µM)	relative viability (Vorinostat + Bortezomib; first compound 8 µM)	relative viability (Vorinostat + AZD7762; first compound 0.253 µM)	relative viability (Vorinostat + AZD7762; first compound 0.8 µM)	relative viability (Vorinostat + AZD7762; first compound 2.53 µM)	relative viability (Vorinostat + AZD7762; first compound 8 µM)	relative viability (Vorinostat + Decitabine; first compound 0.253 µM)	relative viability (Vorinostat + Decitabine; first compound 0.8 µM)	relative viability (Vorinostat + Decitabine; first compound 2.53 µM)	relative viability (Vorinostat + Decitabine; first compound 8 µM)
PC-3 [JPC-3]	0.655	0.676	0.398	0.247	0.779	0.582	0.423	0.309	0.846	0.85	0.398	0.216	0.834	0.526	0.306	0.271	0.807	0.71	0.429	0.381
EPLC-272H	0.984	1	0.242	0.0967	0.309	0.227	0.212	0.145	0.742	0.744	0.275	0.12	0.135	0.171	0.069	0.138	0.309	0.338	0.189	0.152
NCI-H647	1.14	0.759	0.149	0.0271	0.454	0.526	0.153	0.0703	1.18	0.609	0.0719	0.0336	0.406	0.333	0.0641	0.0356	0.356	0.286	0.137	0.0323
